ChEMBL document CHEMBL5390283, “Discovery of PVD-06 as a Subtype-Selective and Efficient PTPN2 Degrader” (J Med Chem, 2023)
Calls of active or inactive are those of the source. No cut-off for these calls is given here.

Columns and labels:
[1] = molecular target: Protein cereblon/Tyrosine-protein phosphatase non-receptor type 2 (Homo sapiens) (UniProt P17706+Q96SW2); assay: PROTAC activity at CRBN/PTPN2 in human Jurkat cells assessed as induction of PTPN2 degradation at 0.01 to 10 uM by Western blot analysis; format: cell-based; conditions: dose 0.01-10 µM
[2] = molecular target: T1, von Hippel-Lindau disease tumor suppressor/Tyrosine-protein phosphatase non-receptor type 2 (Homo sapiens, UniProt P17706+P40337); assay: PROTAC activity at VHL/PTPN2 in human Jurkat cells assessed as induction of PTPN2 degradation at 100 nM by Western blot analysis relative to control; format: cell-based
Target sequence in this assay (P17706 whole entry, looked up): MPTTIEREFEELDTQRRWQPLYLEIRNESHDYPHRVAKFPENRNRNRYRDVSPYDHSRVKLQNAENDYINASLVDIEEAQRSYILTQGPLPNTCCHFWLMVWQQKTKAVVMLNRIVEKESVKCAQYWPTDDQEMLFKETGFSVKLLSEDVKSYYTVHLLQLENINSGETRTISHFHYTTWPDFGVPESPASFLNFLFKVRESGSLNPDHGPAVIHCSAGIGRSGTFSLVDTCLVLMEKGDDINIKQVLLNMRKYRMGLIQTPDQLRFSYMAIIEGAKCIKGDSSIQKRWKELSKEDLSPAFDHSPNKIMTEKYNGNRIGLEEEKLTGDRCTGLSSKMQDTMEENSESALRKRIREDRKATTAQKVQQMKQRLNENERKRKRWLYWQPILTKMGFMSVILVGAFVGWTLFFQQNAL
Target sequence in this assay (P40337 whole entry, looked up): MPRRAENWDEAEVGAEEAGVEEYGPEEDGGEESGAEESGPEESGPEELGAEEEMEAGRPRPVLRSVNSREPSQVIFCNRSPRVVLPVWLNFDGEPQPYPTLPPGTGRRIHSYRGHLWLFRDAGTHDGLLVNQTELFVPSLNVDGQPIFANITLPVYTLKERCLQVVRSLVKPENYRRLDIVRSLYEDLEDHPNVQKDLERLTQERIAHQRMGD

[3] = molecular target: T1, von Hippel-Lindau disease tumor suppressor/Tyrosine-protein phosphatase non-receptor type 2; assay: PROTAC activity at VHL/PTPN2 in human Jurkat cells assessed as induction of PTPN2 degradation at 1 uM by Western blot analysis relative to control; format: cell-based
Target sequence in this assay (P17706 whole entry, looked up): as the sequence (P17706 whole entry, looked up) above
Target sequence in this assay (P40337 whole entry, looked up): as the sequence (P40337 whole entry, looked up) above

[4] = molecular target: T1, von Hippel-Lindau disease tumor suppressor/Tyrosine-protein phosphatase non-receptor type 2; assay: PROTAC activity at VHL/PTPN2 in human Jurkat cells assessed as induction of PTPN2 degradation at 10 uM by Western blot analysis relative to control; format: cell-based
Target sequence in this assay (P17706 whole entry, looked up): as the sequence (P17706 whole entry, looked up) above
Target sequence in this assay (P40337 whole entry, looked up): as the sequence (P40337 whole entry, looked up) above

[5] = molecular target: T1, von Hippel-Lindau disease tumor suppressor/Tyrosine-protein phosphatase non-receptor type 2; assay: PROTAC activity at VHL/PTPN2 in human Jurkat cells assessed as induction of PTPN2 degradation by Western blot analysis; format: cell-based
Target sequence in this assay (P17706 whole entry): as the sequence (P17706 whole entry, looked up) above
Target sequence in this assay (P40337 whole entry): as the sequence (P40337 whole entry, looked up) above

[6] = molecular target: von Hippel-Lindau disease tumor suppressor/Tyrosine-protein phosphatase non-receptor type 1 (Homo sapiens, UniProt P18031+P40337); assay: PROTAC activity at VHL/PTP1B in human Jurkat cells assessed as induction of PTP1B degradation by Western blot analysis; format: cell-based
[7] = molecular target: T1, von Hippel-Lindau disease tumor suppressor/Tyrosine-protein phosphatase non-receptor type 2; assay: PROTAC activity at VHL/PTPN2 in human Jurkat cells assessed as induction of PTPN2 degradation at 1 uM incubated for 24 hrs by label free proteomic analysis; format: cell-based
Target sequence in this assay (P17706 whole entry, looked up): as the sequence (P17706 whole entry, looked up) above
Target sequence in this assay (P40337 whole entry, looked up): as the sequence (P40337 whole entry, looked up) above

Jurkat [8] = assay: Effect on PTPN1 level in human Jurkat cells at 1 uM incubated for 24 hrs by label free proteomic analysis; format: functional, cell-based
Jurkat [9] = assay: Effect on PTPN6 level in human Jurkat cells at 1 uM incubated for 24 hrs by label free proteomic analysis; format: functional, cell-based
Jurkat [10] = assay: Effect on PTPN7 level in human Jurkat cells at 1 uM incubated for 24 hrs by label free proteomic analysis; format: functional, cell-based
Jurkat [11] = assay: Effect on PTPN9 level in human Jurkat cells at 1 uM incubated for 24 hrs by label free proteomic analysis; format: functional, cell-based
Jurkat [12] = assay: Effect on PTPN11 level in human Jurkat cells at 1 uM incubated for 24 hrs by label free proteomic analysis; format: functional, cell-based
Jurkat [13] = assay: Effect on PTPN18 level in human Jurkat cells at 1 uM incubated for 24 hrs by label free proteomic analysis; format: functional, cell-based
Jurkat [14] = assay: Effect on PTPN23 level in human Jurkat cells at 1 uM incubated for 24 hrs by label free proteomic analysis; format: functional, cell-based
[15] = molecular target: T2, von Hippel-Lindau disease tumor suppressor/Receptor-type tyrosine-protein phosphatase N2 (Mus musculus) (UniProt P40338+P80560); assay: PROTAC activity at VHL/PTPN2 in mouse B16-F10 cells assessed as induction of PTPN2 degradation at 0.013 to 10 uM by Western blot analysis; format: cell-based; conditions: dose 0.013-10 µM
[16] = molecular target: T2, von Hippel-Lindau disease tumor suppressor/Receptor-type tyrosine-protein phosphatase N2 (Mus musculus); assay: PROTAC activity at VHL/PTPN2 in mouse splenocytes assessed as induction of PTPN2 degradation at 0.013 to 10 uM by Western blot analysis; format: cell-based; conditions: Splenocyte, dose 0.013-10 µM
B16-F10 [17] = assay: Effect on PTP1B level in mouse B16-F10 cells at 0.013 to 10 uM by Western blot analysis; format: functional, cell-based; conditions: dose 0.013-10 µM
B16-F10 [18] = assay: Effect on SHP-1 level in mouse B16-F10 cells at 0.013 to 10 uM by Western blot analysis; format: functional, cell-based; conditions: dose 0.013-10 µM
B16-F10 [19] = assay: Effect on SHP-2 level in mouse B16-F10 cells at 0.013 to 10 uM by Western blot analysis; format: functional, cell-based; conditions: dose 0.013-10 µM
Splenocyte [20] = assay: Effect on PTP1B level in mouse splenocytes at 0.013 to 10 uM by Western blot analysis; format: functional, cell-based; conditions: dose 0.013-10 µM
Splenocyte [21] = assay: Effect on SHP-1 level in mouse splenocytes at 0.013 to 10 uM by Western blot analysis; format: functional, cell-based; conditions: dose 0.013-10 µM
Splenocyte [22] = assay: Effect on SHP-2 level in mouse splenocytes cells at 0.013 to 10 uM by Western blot analysis; format: functional, cell-based; conditions: dose 0.013-10 µM
[23] = molecular target: T1, von Hippel-Lindau disease tumor suppressor/Tyrosine-protein phosphatase non-receptor type 2; assay: PROTAC activity at VHL/PTPN2 in human HepG2 cells assessed as induction of PTPN2 degradation at 0.013 to 10 uM by Western blot analysis; format: cell-based; conditions: dose 0.013-10 µM
Target sequence in this assay (P17706 whole entry, looked up): as the sequence (P17706 whole entry, looked up) above
Target sequence in this assay (P40337 whole entry, looked up): as the sequence (P40337 whole entry, looked up) above

HepG2 = assay: Effect on PTP1B level in human HepG2 cells at 0.013 to 10 uM by Western blot analysis; format: functional, cell-based; conditions: dose 0.013-10 µM
[24] = molecular target: T1, von Hippel-Lindau disease tumor suppressor/Tyrosine-protein phosphatase non-receptor type 2; assay: PROTAC activity at VHL/PTPN2 in human Jurkat cells assessed as induction of PTPN2 degradation at 1 uM by Western blot analysis; format: cell-based; conditions: time 1-48 hrs, TDE = time-dependent effect
Target sequence in this assay (P17706 whole entry, looked up): as the sequence (P17706 whole entry, looked up) above
Target sequence in this assay (P40337 whole entry, looked up): as the sequence (P40337 whole entry, looked up) above

Jurkat [25] = assay: Effect on PTP1B level in human Jurkat cells at 1 uM incubated for 1 to 48 hrs by Western blot analysis; format: functional, cell-based; conditions: time 1-48 hrs
[26] = molecular target: T1, von Hippel-Lindau disease tumor suppressor/Tyrosine-protein phosphatase non-receptor type 2; assay: PROTAC activity at VHL/PTPN2 in human Jurkat cells assessed as increase in STAT1 phosphorylation incubated for 23 hrs followed by IFN-gamma stimulation for 1 hr by Western blot analysis; format: cell-based; conditions: dose <= 10.0 µM, time 24.0 hrs
[27] = molecular target: T1, von Hippel-Lindau disease tumor suppressor/Tyrosine-protein phosphatase non-receptor type 2; assay: PROTAC activity at VHL/PTPN2 in IFN-gamma-stimulated human Jurkat cells assessed as induction of PTPN2 degradation at 0.1 to 10 uM incubated for 24 hrs by Western blot analysis; format: cell-based; conditions: dose 0.1-10 µM
[28] = molecular target: T1, von Hippel-Lindau disease tumor suppressor/Tyrosine-protein phosphatase non-receptor type 2; assay: PROTAC activity at VHL/PTPN2 in IFN-gamma-stimulated human Jurkat cells assessed as increase in STAT1 phosphorylation at 0.1 to 10 uM incubated for 24 hrs by Western blot analysis; format: cell-based; conditions: dose 0.1-10 µM
Jurkat [29] = assay: Effect on PTP1B level in human Jurkat cells at 0.1 to 10 uM incubated for 24 hrs by Western blot analysis; format: functional, cell-based; conditions: dose 0.1-10 µM
Jurkat [30] = assay: Effect on STAT1 level in human Jurkat cells at 0.1 to 10 uM incubated for 24 hrs by Western blot analysis; format: functional, cell-based; conditions: dose 0.1-10 µM
Splenocyte [31] = assay: Induction of cell proliferation in anti-CD3/CD28-stimulated mouse splenocytes incubated for 3 days by CFSE dye based flow cytometry; format: functional; conditions: dose 1.25-5 µM, time 3.0 day
B16-F10 [32] = assay: Inhibition of cell growth in IFN-gamma-treated mouse B16-F10 cells assessed as reduction in cell confluency measured upto 96 hrs; format: functional, cell-based; conditions: dose 1.25-5 µM

Sequence of Protein cereblon/Tyrosine-protein phosphatase non-receptor type 2 (Homo sapiens) (P17706 whole entry, looked up): as the sequence (P17706 whole entry, looked up) above
Sequence of Protein cereblon/Tyrosine-protein phosphatase non-receptor type 2 (Homo sapiens) (Q96SW2 whole entry, looked up): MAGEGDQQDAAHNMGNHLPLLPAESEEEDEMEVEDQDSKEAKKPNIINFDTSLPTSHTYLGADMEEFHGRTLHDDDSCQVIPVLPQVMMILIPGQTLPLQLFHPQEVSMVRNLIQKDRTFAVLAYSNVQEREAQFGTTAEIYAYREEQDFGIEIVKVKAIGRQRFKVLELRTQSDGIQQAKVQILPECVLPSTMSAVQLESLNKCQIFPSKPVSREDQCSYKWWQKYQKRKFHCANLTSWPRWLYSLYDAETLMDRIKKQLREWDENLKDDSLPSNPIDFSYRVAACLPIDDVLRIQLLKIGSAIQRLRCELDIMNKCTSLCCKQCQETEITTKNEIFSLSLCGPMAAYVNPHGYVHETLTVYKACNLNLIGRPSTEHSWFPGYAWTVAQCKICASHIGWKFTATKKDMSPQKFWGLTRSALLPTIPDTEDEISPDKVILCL
T2 sequence (P40338 whole entry, looked up): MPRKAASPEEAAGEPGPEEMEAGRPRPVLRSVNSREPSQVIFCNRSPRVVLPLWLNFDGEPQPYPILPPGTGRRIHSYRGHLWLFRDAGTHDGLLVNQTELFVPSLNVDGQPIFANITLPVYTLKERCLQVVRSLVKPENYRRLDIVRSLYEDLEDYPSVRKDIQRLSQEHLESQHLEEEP
T2 sequence (P80560 whole entry, looked up): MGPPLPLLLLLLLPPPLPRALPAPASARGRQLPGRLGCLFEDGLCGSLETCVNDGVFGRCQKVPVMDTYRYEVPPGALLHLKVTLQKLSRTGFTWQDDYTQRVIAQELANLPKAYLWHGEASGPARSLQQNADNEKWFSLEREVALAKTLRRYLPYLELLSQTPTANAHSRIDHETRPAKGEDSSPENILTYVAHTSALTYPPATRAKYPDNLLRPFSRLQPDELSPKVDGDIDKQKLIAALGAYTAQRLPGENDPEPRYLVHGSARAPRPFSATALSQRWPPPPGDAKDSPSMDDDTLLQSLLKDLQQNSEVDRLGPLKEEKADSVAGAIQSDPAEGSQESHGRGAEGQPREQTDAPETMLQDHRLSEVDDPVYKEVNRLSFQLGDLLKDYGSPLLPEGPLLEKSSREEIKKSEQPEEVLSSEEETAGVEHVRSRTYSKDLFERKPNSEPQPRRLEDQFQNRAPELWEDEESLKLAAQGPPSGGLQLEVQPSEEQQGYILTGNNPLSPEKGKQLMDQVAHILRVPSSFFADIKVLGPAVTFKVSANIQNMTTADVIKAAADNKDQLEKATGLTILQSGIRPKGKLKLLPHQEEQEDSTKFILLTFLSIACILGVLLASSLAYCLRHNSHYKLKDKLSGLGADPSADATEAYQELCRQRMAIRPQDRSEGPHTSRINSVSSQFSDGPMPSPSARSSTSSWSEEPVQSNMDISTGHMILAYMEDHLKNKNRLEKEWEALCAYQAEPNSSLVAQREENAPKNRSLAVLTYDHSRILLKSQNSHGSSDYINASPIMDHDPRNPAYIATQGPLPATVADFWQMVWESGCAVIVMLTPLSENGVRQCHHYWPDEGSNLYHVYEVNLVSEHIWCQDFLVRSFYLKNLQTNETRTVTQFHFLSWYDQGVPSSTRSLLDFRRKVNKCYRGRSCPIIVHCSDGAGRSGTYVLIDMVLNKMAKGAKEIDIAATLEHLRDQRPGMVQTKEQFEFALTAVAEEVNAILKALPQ
Sequence of von Hippel-Lindau disease tumor suppressor/Tyrosine-protein phosphatase non-receptor type 1 (P18031 whole entry): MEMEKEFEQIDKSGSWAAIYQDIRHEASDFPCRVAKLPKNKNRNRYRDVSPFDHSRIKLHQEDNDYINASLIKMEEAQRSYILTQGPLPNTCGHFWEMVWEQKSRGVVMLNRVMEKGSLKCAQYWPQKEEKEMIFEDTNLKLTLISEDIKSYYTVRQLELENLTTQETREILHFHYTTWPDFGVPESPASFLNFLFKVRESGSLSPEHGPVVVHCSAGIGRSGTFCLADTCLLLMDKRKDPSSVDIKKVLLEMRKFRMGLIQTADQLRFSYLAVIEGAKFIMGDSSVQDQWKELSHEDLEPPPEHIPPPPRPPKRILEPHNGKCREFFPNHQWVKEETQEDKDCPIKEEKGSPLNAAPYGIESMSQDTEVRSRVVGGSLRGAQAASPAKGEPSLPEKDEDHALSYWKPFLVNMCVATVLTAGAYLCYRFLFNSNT
Sequence of von Hippel-Lindau disease tumor suppressor/Tyrosine-protein phosphatase non-receptor type 1 (P40337 whole entry): as the sequence (P40337 whole entry, looked up) above

## Cn1c(=O)n(C2CCC(=O)NC2=O)c2ccc(C3CCN(CCn4cc(-c5ccc6cc(O)c(N7CC(=O)NS7(=O)=O)c(F)c6c5)cn4)CC3)cc21 (centres undefined)
[1]
  Activity: Active

## Cn1c(=O)n(C2CCC(=O)NC2=O)c2ccc(C3CCN(C(=O)Cn4cc(-c5ccc6cc(O)c(N7CC(=O)NS7(=O)=O)c(F)c6c5)cn4)CC3)cc21 (centres undefined)
[1]
  Activity: Active

## Cc1ncsc1-c1ccc([C@H](C)NC(=O)[C@@H]2C[C@@H](O)CN2C(=O)[C@@H](NC(=O)CCNC(=O)Cn2cc(-c3ccc4cc(O)c(N5CC(=O)NS5(=O)=O)c(F)c4c3)cn2)C(C)(C)C)cc1
[2]
  Activity: -1%
[3]
  Activity: 57%
[4]
  Activity: 96%

## Cc1ncsc1-c1ccc([C@H](C)NC(=O)[C@@H]2C[C@@H](O)CN2C(=O)[C@@H](NC(=O)CCCCCCCCCCNC(=O)Cn2cc(-c3ccc4cc(O)c(N5CC(=O)NS5(=O)=O)c(F)c4c3)cn2)C(C)(C)C)cc1
[2]
  Activity: 4%
[3]
  Activity: 71%
[4]
  Activity: 98%
[5]
  EC50: 0.571 µM
[6]
  EC50: 2 µM

## Cc1ncsc1-c1ccc([C@H](C)NC(=O)[C@@H]2C[C@@H](O)CN2C(=O)[C@@H](NC(=O)Cn2cc(-c3ccc4cc(O)c(N5CC(=O)NS5(=O)=O)c(F)c4c3)cn2)C(C)(C)C)cc1
[2]
  Activity: -3%
[3]
  Activity: -8%
[4]
  Activity: -53%

## Cc1ncsc1-c1ccc([C@H](C)NC(=O)[C@@H]2C[C@@H](O)CN2C(=O)[C@@H](NC(=O)CCCNC(=O)Cn2cc(-c3ccc4cc(O)c(N5CC(=O)NS5(=O)=O)c(F)c4c3)cn2)C(C)(C)C)cc1
[2]
  Activity: 26%
[3]
  Activity: 81%
[4]
  Activity: 98%

## Cc1ncsc1-c1ccc([C@H](C)NC(=O)[C@@H]2C[C@@H](O)CN2C(=O)[C@@H](NC(=O)CCNC2CCN(C(=O)Cn3cc(-c4ccc5cc(O)c(N6CC(=O)NS6(=O)=O)c(F)c5c4)cn3)CC2)C(C)(C)C)cc1
[2]
  Activity: 15%
[3]
  Activity: 35%
[4]
  Activity: 85%

## Cc1ncsc1-c1ccc([C@H](C)NC(=O)[C@@H]2C[C@@H](O)CN2C(=O)[C@@H](NC(=O)CCCCCNC(=O)Cn2cc(-c3ccc4cc(O)c(N5CC(=O)NS5(=O)=O)c(F)c4c3)cn2)C(C)(C)C)cc1
[2]
  Activity: 43%
[3]
  Activity: 81%
[4]
  Activity: 99%
[5]
  EC50: 0.217 µM
[6]
  EC50: 13.1 µM
[7]
  Activity: Active
Jurkat [8]
  Activity: inactive
Jurkat [9]
  Activity: inactive
Jurkat [10]
  Activity: inactive
Jurkat [11]
  Activity: inactive
Jurkat [12]
  Activity: inactive
Jurkat [13]
  Activity: inactive
Jurkat [14]
  Activity: inactive
[15]
  Activity: Active
[16]
  Activity: Active
B16-F10 [17]
  Activity: inactive
B16-F10 [18]
  Activity: inactive
B16-F10 [19]
  Activity: inactive
Splenocyte [20]
  Activity: inactive
Splenocyte [21]
  Activity: inactive
Splenocyte [22]
  Activity: inactive
[23]
  Activity: Active
HepG2
  Activity: inactive
[24]
  Activity: Tde
Jurkat [25]
  Activity: inactive
[26]
  Activity: Dose-Dependent Effect
[27]; DEGRADER
  Activity: Active
[27]
  Activity: inactive
[28]; DEGRADER
  Activity: Active
[28]
  Activity: inactive
Jurkat [29]
  Activity: inactive
Jurkat [30]
  Activity: inactive
Splenocyte [31]
  Activity: Dose-Dependent Effect
B16-F10 [32]
  inhibition: Dose-Dependent Effect

## O=C(Cn1cc(-c2ccc3cc(O)c(N4CC(=O)NS4(=O)=O)c(F)c3c2)cn1)NCCCCNc1cccc2c1C(=O)N(C1CCC(=O)NC1=O)C2=O (centres undefined)
[1]
  Activity: Active
